From PMC2964301, “Human α3β4 Neuronal Nicotinic Receptors Show Different Stoichiometry if They Are Expressed in Xenopus Oocytes or Mammalian HEK293 Cells” (PLoS ONE, 2010)
Values belong to the molecule of their own block, whether it stands above or below them.

Tests used:
Assay type in all cases: cell-based
[1] = target: T1, human α3β4 nicotinic receptor in Xenopus oocytes, 1:9 α:β cRNA (putative two-α form) (Homo sapiens, UniProt P30926+P32297); assay: two-electrode voltage clamp, extrapolated from low-concentration potency ratio; settings: agonist, unreliable (extrapolated assuming identical efficacy to ACh)
T1 construct: gene CHRNA3; untagged; Xenopus laevis oocytes, 1:9 α:β cRNA; heteropentamer, putative (α3)2(β4)3
Target sequence in this assay (P30926 22-498): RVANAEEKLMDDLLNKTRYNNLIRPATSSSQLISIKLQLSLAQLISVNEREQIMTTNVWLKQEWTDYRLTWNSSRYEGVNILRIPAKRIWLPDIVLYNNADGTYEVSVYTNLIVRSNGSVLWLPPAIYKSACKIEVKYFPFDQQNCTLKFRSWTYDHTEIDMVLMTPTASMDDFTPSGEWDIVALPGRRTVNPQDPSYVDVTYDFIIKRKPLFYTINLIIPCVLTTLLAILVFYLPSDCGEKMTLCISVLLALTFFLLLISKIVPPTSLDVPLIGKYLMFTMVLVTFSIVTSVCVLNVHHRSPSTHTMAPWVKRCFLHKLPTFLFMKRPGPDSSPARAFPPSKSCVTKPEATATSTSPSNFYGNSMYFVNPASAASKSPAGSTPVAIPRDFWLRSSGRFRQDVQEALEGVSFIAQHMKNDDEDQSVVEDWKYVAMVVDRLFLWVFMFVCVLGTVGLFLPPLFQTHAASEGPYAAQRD
Target sequence in this assay (P32297 32-505): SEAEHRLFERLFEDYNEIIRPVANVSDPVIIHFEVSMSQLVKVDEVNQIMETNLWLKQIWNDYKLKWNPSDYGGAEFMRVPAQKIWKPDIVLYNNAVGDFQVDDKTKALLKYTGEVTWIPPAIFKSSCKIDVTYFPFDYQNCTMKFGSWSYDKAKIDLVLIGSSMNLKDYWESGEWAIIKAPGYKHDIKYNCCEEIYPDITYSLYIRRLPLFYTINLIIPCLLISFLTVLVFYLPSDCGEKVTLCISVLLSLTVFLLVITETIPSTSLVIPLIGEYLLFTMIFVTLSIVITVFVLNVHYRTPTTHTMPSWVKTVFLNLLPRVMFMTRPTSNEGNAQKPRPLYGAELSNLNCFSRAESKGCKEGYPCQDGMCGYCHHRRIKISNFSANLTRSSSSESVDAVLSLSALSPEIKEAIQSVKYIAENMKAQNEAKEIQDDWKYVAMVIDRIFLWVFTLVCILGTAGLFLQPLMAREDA

[2] = target: T2, human α3β4 nicotinic receptor in Xenopus oocytes, 9:1 α:β cRNA (putative three-α form) (Homo sapiens, UniProt P30926+P32297); assay: as above; settings: agonist, unreliable (extrapolated assuming identical efficacy to ACh)
T2 construct: gene CHRNA3; untagged; Xenopus laevis oocytes, 9:1 α:β cRNA; heteropentamer, putative (α3)3(β4)2

[3] = target: T1, human α3β4 nicotinic receptor in Xenopus oocytes, 1:9 α:β cRNA (putative two-α form); assay: two-electrode voltage clamp, partial dose-response curves; settings: agonist, -70 mV, pH 7.2, nominally Ca-free, 0.5 µM atropine, 18°C, low concentrations
Excerpt: two-electrode voltage clamp, partial dose-response curves on human α3β4 nicotinic receptor in Xenopus oocytes, 1:9 α:β cRNA (putative two-α form)

T2 sequence (P30926 22-498): as the sequence (P30926 22-498) above
T2 sequence (P32297 32-505): as the sequence (P32297 32-505) above

Compound: C[N+]1(C)CCN(c2ccccc2)CC1 [DMPP, 1,1-dimethyl-4-phenylpiperazinium iodide]
- EC 50 [1]: ~ 140 µM
- EC 50 [2]: ~ 30 µM

- Potency ratio [3]: 0.094±0.003
Compound: C[N+](C)(C)CCOC(N)=O [carbachol]

Compound: O=c1cccc2n1C[C@@H]1CNC[C@H]2C1 [cytisine]
- Potency ratio [3]: 1.40±0.15

Compound: Clc1ccc(C2CC3CCC2N3)cn1 (stereo not shown) [epibatidine]
- Potency ratio [3]: 6290±815

Compound: CN1[C@@H](CC(=O)c2ccccc2)CCC[C@H]1C[C@H](O)c1ccccc1 [lobeline]
- Potency ratio [3]: 7.35±0.56

Compound: CN1CCC[C@H]1c1cccnc1 [nicotine]
- Potency ratio [3]: 1.43±0.14
